These results are taken from publication PMC10515640, “Structure-Based Optimization of Covalent, Small-Molecule Stabilizers of the 14-3-3σ/ERα Protein–Protein Interaction from Nonselective Fragments” (Journal of the American Chemical Society, 2023).

One test concerns the target T1, 14-3-3σ (Homo sapiens, UniProt P31947).
T1 construct: The 14-3-3 σ isoform (full-length for mass spectrometry and fluorescence anisotropy assays, ΔC for crystallography); made in house; host or cells: E. coli Rosetta 2(DE3)pLysS, pPROEX HTb vector
T1 sequence (P31947 1-248): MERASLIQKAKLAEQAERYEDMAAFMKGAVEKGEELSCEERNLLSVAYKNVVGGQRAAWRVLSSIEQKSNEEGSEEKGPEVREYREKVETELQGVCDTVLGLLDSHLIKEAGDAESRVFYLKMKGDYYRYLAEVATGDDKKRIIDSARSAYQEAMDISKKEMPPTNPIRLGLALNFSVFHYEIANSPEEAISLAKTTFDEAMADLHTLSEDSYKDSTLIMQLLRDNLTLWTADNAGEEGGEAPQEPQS
Put plainly: Mass spectrometry dose response, compound binding to 14-3-3σ in the absence of peptide (apo). The settings on record: 100 nM compound, 100 nM 14-3-3σ. In a few lines: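 This apo mass spectrometry assay tracked adduct formation between compounds and the native cysteine of 14-3-3σ in the absence of any peptide. Wells held 100 nM protein in 10 mM TRIS pH 8.0 with a 3-fold compound dilution series, final volume 50 μl. Injections of 6 μl were taken at 1h, 8h, 16h and 24h, and dose responses were fitted with a four-parameter variable-slope model in GraphPad Prism.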

Test [1] has as its target T2, 14-3-3σ/ERα (Homo sapiens, UniProt P03372+P31947).
T2 construct: The 14-3-3 σ isoform (full-length for mass spectrometry and fluorescence anisotropy assays, ΔC for crystallography); made in house; host or cells: E. coli Rosetta 2(DE3)pLysS, pPROEX HTb vector
The test can be described thus: Fluorescence anisotropy compound titration, FAM-labeled ERα peptide. Type of test: binding. Conditions: EC50 value ERα (FA compound titration), 10 nM ERα-FAM labeled peptide, 1 µM 14-3-3σ, overnight incubation (24 h). In a few lines:
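Compounds, serially diluted 2-fold from a top concentration of 500 or 1000 µM, were added to 10 nM FAM-labeled ERα peptide plus 1 µM 14-3-3σ in 10 mM HEPES pH 7.5, 150 mM NaCl, 0.1% Tween20, 1 mg/mL BSA (1% DMSO). Anisotropy was measured after overnight room-temperature incubation, and EC50 values were derived by four-parameter logistic fitting averaged over three independent experiments.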
(In fluorescence polarisation assays a small probe gives low polarisation when free and higher when bound to something large.)

The next test addresses T3, 14-3-3σ/C-RAF (Homo sapiens, UniProt P31947).
T3 construct: The 14-3-3 σ isoform (full-length for mass spectrometry and fluorescence anisotropy assays, ΔC for crystallography); made in house; host or cells: E. coli Rosetta 2(DE3)pLysS, pPROEX HTb vector
T3 sequence (P31947 1-248): T1 sequence (P31947 1-248)
Put plainly: Mass spectrometry dose response, compound binding to 14-3-3σ in the presence of C-RAF phosphopeptide. The settings on record: 100 nM compound, 100 nM 14-3-3σ, C-RAF peptide 18 µM. Put shortly:
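Compound stocks of 50 mM in DMSO were serially diluted 3-fold to give 19-point dose responses topping out at 1 mM, then 1000 nl was transferred into 50 μl wells holding 100 nM full-length wild type 14-3-3σ plus C-RAF phosphopeptide. Mass spectrometry measured percent compound bound to Cys38, with curves fitted in GraphPad Prism using a four-parameter variable-slope model.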

Test [2] deals with T2, 14-3-3σ/ERα. Put plainly: Fluorescence anisotropy compound titration, FAM-labeled ERα peptide. Conditions: labeling in MS assay, peptide binding in FA assay.
Test [3] addresses T2, 14-3-3σ/ERα. The test can be described thus: Mass spectrometry dose response, compound binding to 14-3-3σ in the presence of ERα phosphopeptide. Conditions: 100 nM compound, 100 nM 14-3-3σ, ERα-peptide 2 µM. Put shortly: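 Covalent labeling of Cys38 on 14-3-3σ was tracked by LC-MS on a Waters Acquity UPLC/Xevo G2-XS Q-Tof, with samples desalted on a Protein BEH-C4 column. Full-length wild type 14-3-3σ (100 nM) plus ERα phosphopeptide was mixed with compound in 10 mM TRIS, pH 8.0, at 50 μl per well. Percent bound was measured at several time points.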

pEC50: −log10 of the molar value. Where only a bound is given, the exact number is not on record here.

On to `C=CS(=O)(=O)NCC1CCN(C(=O)C2(Nc3ccc(Cl)cc3)CCOCC2)CC1` [compound 155], for which, at 14-3-3σ (1h), the “Percentage (%) bound of compound to 14-3-3σ, APO 1h” value is on record as 0%. In addition, the “Percentage (%) bound of compound to 14-3-3σ, APO 8h” value on 14-3-3σ (8h) was 0.7%. Besides, the “Percentage (%) bound of compound to 14-3-3σ, APO 16h” value on 14-3-3σ (16h) is listed as 4.6%. The “Percentage (%) bound of compound to 14-3-3σ, APO 24h” value at 14-3-3σ (24h) came out at 31.4%. In addition, the negative logarithm of the EC50 (pEC50) at 14-3-3σ/ERα [1] is less than 3.82. Also, the “Percentage (%) bound of compound to 14-3-3σ, CRAF 1h” value at 14-3-3σ/C-RAF (1h) was 0%. On 14-3-3σ/C-RAF (8h), the “Percentage (%) bound of compound to 14-3-3σ, CRAF 8h” value is given as 0%. In addition, the “Percentage (%) bound of compound to 14-3-3σ, CRAF 24h” value on 14-3-3σ/C-RAF (24h) came to 1.0%; on 14-3-3σ/C-RAF (head prints 24h) it was 0%. Further, the “activity in MS and FA assays (in words)” value at 14-3-3σ/ERα [2] was “inactive”. On 14-3-3σ/ERα [3] (1h), the “Percentage (%) bound of compound to 14-3-3σ, ERα 1h” value is on record as 0.6%. For the same molecule, the “Percentage (%) bound of compound to 14-3-3σ, ERα 8h” value at 14-3-3σ/ERα [3] (8h) was determined as 1.5%. Besides, the “Percentage (%) bound of compound to 14-3-3σ, ERα 16h” value on 14-3-3σ/ERα [3] (16h) is on record as 5.9%. In addition, the “Percentage (%) bound of compound to 14-3-3σ, ERα 24h” value on 14-3-3σ/ERα [3] (24h) was 14.1%.

Usually pEC50 stands for the EC50 on a negative log10 scale, so that one unit is a factor of ten.
